Consider 71 compounds from PubChem BioAssay AID179 (DTP/NCI, 2004).

For the assay, the system named is CEM cells HIV-1 protection, formazan growth assay. Nature of the assay: NCI AIDS Antiviral Assay. The note with it: for IC50: measured here: growth of uninfected CEM cells. The method in brief:
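CEM (human) cells, HIV-1 infected vs uninfected, 5-point dosing, formazan growth read-out. Retest threshold 50% protection.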

Calls of active or inactive are those of the source.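 Rule for the calls: active = compounds giving half or more protection of infected cells from virus-caused growth loss, again on retest; inactive = the rest.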 Where a SMILES comes first, the peptide text is derived from it. Some results are limits rather than exact numbers.

As a reminder, the EC50 is the concentration giving half of the maximal effect. As usually defined, the IC50 is the point on the concentration scale where inhibition reaches its midpoint. Low values mean higher potency, high ones lower potency. Turning to `CC1(C)Oc2ccc3ccccc3c2[C@@H](OC(=O)C23CCC(C)(C(=O)O2)C3(C)C)[C@H]1OC(=O)C12CCC(C)(C(=O)O1)C2(C)C` (stereo partly specified), the EC50 is more than 200 µM and the IC50 was 3.55 µM. Turning to `CC1(CO)CCC(n2ccc(N)nc2=O)O1` (stereo unspecified), the EC50 is 30.9 µM and the half-maximal inhibitory concentration (IC50) is more than 200 µM. The matching figures for `CC1=C(C)C(=O)C(C2=C(C3=CC(=O)C(C)=C(C)C3=O)C(=O)C(C)=C(C)C2=O)=CC1=O`: more than 20 µM and 1.02 µM. As to `O=C(CC(=O)c1cccc2ccccc12)C(=O)Nc1nccs1`, the EC50 is more than 30.9 µM and the IC50 is more than 30.9 µM. In the case of `O=C(OC1=C(OC(=O)c2ccc(N=Nc3ccccc3)cc2)c2ccccc21)c1ccc(N=Nc2ccccc2)cc1`, the EC50 was more than 200 µM and the IC50 is more than 200 µM. For `C1#CCCCCCCC#CCCCCC1.[C-]#[O+].[C-]#[O+].[C-]#[O+].[C-]#[O+].[C-]#[O+].[C-]#[O+].[C-]#[O+].[C-]#[O+].[C-]#[O+].[C-]#[O+].[C-]#[O+].[C-]#[O+].[Co].[Co].[Co].[Co]`, the EC50 is more than 2.57 µM and the IC50 was more than 2.57 µM. For `O=C1CCCC/C1=C/c1ccccc1`, the EC50 is more than 200 µM and the concentration for half-maximal inhibition (IC50) stood at 12.9 µM. The matching figures for `CC(C)(C)n1c(=O)[nH]c(=O)n1C(C)(C)C`: more than 200 µM and more than 200 µM. Taken in the same sequence, the figures for `Cc1cccnc1NC(=S)Nc1ccccc1Cl` were more than 200 µM and 0.813 µM. Consider `CCCCn1c(-c2ccccc2)cs/c1=N\Nc1nc2c(c(=O)n(C)c(=O)n2C)n1C`, for which the EC50 was more than 200 µM and the 50% inhibitory concentration (IC50) was 10.7 µM.

For the compound `COC(=O)CSc1n[nH]c(-c2ccccc2)n1`, the EC50 is more than 1000 µM and the IC50 was 372 µM.

With `COc1cc(C(c2c(O)c3ccccc3oc2=O)c2c(O)c3ccccc3oc2=O)cc(OC)c1OC`, the EC50 was more than 200 µM and the IC50 came out at 93.3 µM. With `O=[N+]([O-])c1ccc(S(=O)(=O)N/N=C/C=C/c2ccccc2)cc1`, the EC50 was more than 151 µM and the half-inhibitory concentration (IC50) was more than 151 µM.

Regarding `CCC1Oc2c(CC=C(C)C)c(OC(C)=O)c(C(OC(C)=O)C(C)CC)c3oc(=O)cc1c23` (stereo unspecified), the EC50 is more than 200 µM and the IC50 came to 95.5 µM.

On to `Cc1ccc(C2OC(=O)c3c2ccc2ccccc32)cc1` (stereo unspecified), for which the EC50 was more than 35.5 µM and the IC50 is more than 35.5 µM. Take `CC(CN(C)C)OC(=O)c1cc2ccccc2[nH]1` (stereo unspecified): the EC50 is more than 200 µM and the IC50 is more than 200 µM.

On to `Cc1cc(NS(=O)(=O)c2ccc(NC(NC(=O)C(C(F)(F)F)C(F)(F)F)(C(F)(F)F)C(F)(F)F)cc2)no1`, for which the EC50 was more than 200 µM and the IC50 is more than 200 µM. In the case of `CCCCN1C=CN2c3nc4cc(C)c(C)cc4n3C(C(=O)OC)=C(C(=O)OC)C12` (stereo unspecified), the outcome was inactive. `COc1c(C(=O)CC2c3c(cc4oc(C)cc(=O)c4c3OC)OC(=N)C2c2nc3ccccc3[nH]2)c(O)c(OC)c2occc12` (stereo unspecified): the EC50 was 25.1 µM and the IC50 was determined as 49 µM. The matching figures for `CN1C(=O)c2ccccc2C(O)(c2ccccc2)C1(O)c1ccccc1` (stereo unspecified): more than 200 µM and 64.6 µM. With `CC1(O)Oc2ccc3ccccc3c2C=C1C(N)=O` (stereo unspecified), the EC50 was more than 200 µM and the IC50 stood at 182 µM.

Consider `CC(C)CC(NC(=O)OC(C)(C)C)C(=O)Nc1ccc(Nc2nc(F)nc(-c3c4ccccc4c4n3CCS4)n2)cc1` (stereo unspecified), for which the EC50 is more than 6.03 µM and the IC50 was more than 6.03 µM. Consider `O=Nc1ccccc1N=O`, for which the outcome was inactive. With `COc1cc2c(cc1OC)CC(N=[N+]=[N-])c1cc(OC)c(OC)cc1/C=C\2` (stereo unspecified), the EC50 is more than 200 µM and the IC50 was 70.8 µM.

For the compound `COC(=O)C1=CC2C=CC(C1C(=O)OC)C1C(C(=O)OC)=C(C(=O)OC)C(C(=O)OC)=C(C(=O)OC)C21OC` (stereo unspecified), the outcome was inactive. As to `CCC1c2c(cc(=O)[nH]c2O)C(=O)N1C` (stereo unspecified), the EC50 was more than 447 µM and the IC50 is more than 447 µM.

Turning to `NC(=O)c1nnc2c(F)cccc2c1N`, the EC50 was more than 200 µM and the IC50 came out at 182 µM. Take `CCOC1(NC(=O)N(C)C)C2CCCC21` (stereo unspecified): the EC50 was more than 200 µM and the IC50 is more than 200 µM. In the case of `c1ccc(COc2cccc3cccnc23)cc1`, the EC50 was more than 251 µM and the IC50 is 110 µM. As to `C=CCSC(C)=O`, the EC50 was more than 200 µM and the IC50 was more than 200 µM. Take `CC(C)N(C(=O)C12C3C4C1C1C2C3C41C(N)=O)C(C)C` (stereo unspecified): the EC50 was more than 912 µM and the IC50 is more than 912 µM. For `O=c1oc2ccccc2c(O)c1C(c1ccco1)c1c(O)c2ccccc2oc1=O`, the EC50 is more than 200 µM and the IC50 amounted to 33.9 µM.

Turning to `C[C@@]1(CO)OC(=O)N2CCC[C@H]21`, the EC50 is more than 1450 µM and the IC50 was more than 1450 µM. Consider `CNC(=O)c1[nH]cnc1/N=N/N(C)N`, for which the EC50 is more than 200 µM and the IC50 worked out at 182 µM. The matching figures for `NC(CCCCNc1ccn(C2OC(CO)C(O)C2O)c(=O)n1)C(=O)O` (stereo unspecified): more than 100 µM and 5.5 µM. Taken in the same sequence, the figures for `COc1ccc(C2=C(C#N)C(=O)OCCN2C)cc1` were more than 200 µM and more than 200 µM. As to `Cc1cc(C)c2c(=N)c3ccccc3n(CCCCCCO)c2n1`, the EC50 was more than 200 µM and the IC50 worked out at 1.38 µM. For the compound `COc1ccc(N/C=C/C2=[N+](C)c3ccccc3C2(C)C)c(OC)c1`, the EC50 was more than 479 µM and the IC50 is 38.9 µM.

Regarding `CC1=CC(C)(C)NC(=S)N1c1ccc(N(C)C)cc1`, the result was inactive. As to `O=C(O)c1cc2c(cc1C(=O)O)C(=O)C(c1ccccc1)C2=O`, the EC50 is more than 200 µM and the IC50 was more than 200 µM.

As to `Cc1nc(C)c(N2CCN(C#N)CC2)c(=O)[nH]1`, the EC50 was more than 200 µM and the IC50 is more than 200 µM. With `CN(C)Cc1cc(O)c(CN(C)C)cc1O`, the EC50 was more than 200 µM and the IC50 came out at 9.33 µM. Taken in the same sequence, the figures for `CNc1c(Cl)cc(/C=C2\C=Cc3ccccc32)cc1Cl` were more than 17.4 µM and 12.9 µM. Taken in the same sequence, the figures for `CC(C)(C)OC(=O)NCCC1SC2C=CC1C2` (stereo unspecified) were more than 200 µM and 107 µM. Taken in the same sequence, the figures for `O=[N+]([O-])c1ccc(-[n+]2ccc3ccccc3c2)c([N+](=O)[O-])c1` were more than 759 µM and 4.79 µM.

As to `O=S(=O)(O)CCCCO`, the EC50 is more than 200 µM and the IC50 is more than 200 µM. In the case of `CCN(CCN(CC)C(=O)NC)C(=O)NC`, the EC50 is more than 200 µM and the IC50 is more than 200 µM. Consider `Cc1ccc(S(=O)(=O)N2c3ccccc3[C@H]3CCC=C[C@H]32)cc1`, for which the EC50 was more than 100 µM and the IC50 was 6.92 µM. The matching figures for `CN(C)c1nc(=NCc2ccccc2)ss1`: more than 200 µM and 10.2 µM.

`CCOC(=O)C(=O)Nc1nc2c(s1)C(=O)c1ccccc1C2=O`: the result was inactive. For the compound `Clc1ccc(C2SCc3nc4ccccc4n32)cc1Cl` (stereo unspecified), the result was inactive. In the case of `Cc1ccc(N=Nc2c(C)c(C#N)c(=S)n(C3OC(CO)C(O)C(O)C3O)c2C)cc1` (stereo unspecified), the EC50 is more than 200 µM and the IC50 is 19.1 µM. Taken in the same sequence, the figures for `CCC(C)C(NC(=O)C(CC(C)C)NC(=O)CNC(=O)C(CC(N)=O)NC(=O)C(CC(=O)O)NC(=O)C(N)CC(C)C)C(=O)NC(CC(C)C)C(=O)NC(C)C(=O)NC(Cc1ccc(O)cc1)C(=O)O` (stereo unspecified) (H-LDNGLILAY-OH; configuration not given here) were more than 50.1 µM and more than 50.1 µM.

In the case of `O=C(O)c1cc(O)c2c(c1)C(=O)c1cc(O)cc(O)c1C2=O`, the result was inactive. Still for that read-out and setting: to `Cc1cc(C)nc(NS(=O)(=O)c2ccc(NC(=O)COC(=O)c3cccc4c(=O)c5ccccc5[nH]c34)cc2)n1` belongs “inactive”; to `CC(=O)OC1OC(=O)C(C)(C(C)=O)C1C` (stereo unspecified), “inactive”.

Take `CC1CCCc2c(-c3ccc(Cl)cc3)nc(N)c(C#N)c21` (stereo unspecified): the EC50 is more than 200 µM and the IC50 was 26.3 µM. Turning to `Cc1nc(N)nc(N)c1CCCCc1ccccc1`, the result was inactive. On to `COc1ccc2c(CCNC(C)=O)c(C(C)=O)[nH]c2c1`, for which the outcome was inactive.

In the case of `Cc1ccccc1CN1C2=NCCN2C(=O)C2=C1CCN(S(=O)(=O)c1ccc(Cl)c(S(N)(=O)=O)c1)C2`, the EC50 was more than 200 µM and the IC50 came to 93.3 µM. `O=c1oc2cccnc2n1CCCCN1CCN(c2ccccc2)CC1`: the EC50 was more than 200 µM and the IC50 was found to be 126 µM. The matching figures for `Cc1ccc(CN=C(N)CSS(=O)(=O)O)cc1C`: more than 200 µM and more than 100 µM. Turning to `C[C@]12CC[C@H]3[C@@H](CC[C@]4(O)C[C@@H](O)CC[C@]34C=O)[C@@]1(O)CC[C@@H]2C1=CC(=O)OC1`, the EC50 is more than 2 µM and the half-maximal inhibitory concentration (IC50) stood at 0.24 µM. The matching figures for `COC(=O)c1c(C)cccc1/C=C1/Cc2c(C)cccc2C1=O`: more than 200 µM and more than 200 µM. The matching figures for `Cc1cc(NS(=O)(=O)c2ccc(NC(=O)c3ccc(Cl)c4c(Nc5ccc(S(=O)(=O)Nc6cc(C)on6)cc5)c5ccccc5nc34)cc2)no1`: more than 47.9 µM and more than 47.9 µM. Taken in the same sequence, the figures for `CCOC(=O)C(NC(=O)NC(C(=O)OCC)C(=O)OCC)C(=O)OCC` were more than 200 µM and more than 200 µM. With `c1ccc2c3[nH]c(c2c1)=Nc1ccc(cc1)-c1nc2cc(ccc2o1)N=c1[nH]c(c2ccccc12)=Nc1ccc2nc(oc2c1)-c1ccc(cc1)N=3`, the EC50 is more than 200 µM and the IC50 is 40.7 µM. Taken in the same sequence, the figures for `C1=CC2C(C3CN(c4ccccc4)N=C13)C1C3C4C=CC21C=CC43` (stereo unspecified) were more than 200 µM and more than 200 µM.

For the compound `O=C(O)C1SCCS1`, the EC50 was more than 200 µM and the IC50 was more than 200 µM. For `Cc1ccc2c(c1)C(=O)N1CCC[C@H]1C=N2`, the EC50 is more than 200 µM and the half-inhibitory concentration (IC50) was found to be 3.63 µM. Turning to `CC(=O)O[C@@H](c1nccn1Cc1ccccc1)[C@H]1OC(C)(C)O[C@@H]1[C@H]1COC(C)(C)O1`, the EC50 is more than 200 µM and the IC50 is more than 200 µM.
